# Test results as given in patent US10610125B2, “Methods and compositions for cell-proliferation-related disorders” (Agios Pharmaceuticals, Inc., priority 2009, dated 2020).
# Several values for one entry are separate records, joined by “and”; a condition that tells them apart may be missing. Equal entries are not always repeated. Where two headings read alike, the source gives them in different places.
# Tests used:
# IDH1 wild-type [1] = molecular target: T1, IDH1 wild-type (Homo sapiens (Human), UniProt O75874); experiment: Oxidative decarboxylation of isocitrate to α-KG by IDH1 wild-type (340 nm); assay type: biochemical; conditions: for effect on oxidative decarboxylation of isocitrate by wild-type ICDH1: added in a titration series
# T1 sequence (O75874 whole entry): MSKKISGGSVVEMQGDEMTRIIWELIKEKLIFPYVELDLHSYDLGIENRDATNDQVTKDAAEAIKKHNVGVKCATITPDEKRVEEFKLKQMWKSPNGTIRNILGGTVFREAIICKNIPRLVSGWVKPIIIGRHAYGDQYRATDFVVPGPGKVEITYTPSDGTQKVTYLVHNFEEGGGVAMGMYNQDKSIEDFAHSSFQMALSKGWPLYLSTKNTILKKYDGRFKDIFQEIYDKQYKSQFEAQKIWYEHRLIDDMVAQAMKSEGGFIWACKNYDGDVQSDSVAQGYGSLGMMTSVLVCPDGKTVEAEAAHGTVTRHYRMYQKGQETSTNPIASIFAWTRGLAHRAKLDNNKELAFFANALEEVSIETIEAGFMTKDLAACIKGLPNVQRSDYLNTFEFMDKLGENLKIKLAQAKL
# Protocol: (§1) In these reactions, the substrate was varied while the cofactor was held constant at 500 uM. All reactions were performed in 150 mM NaCl, 20 mM Tris-Cl, pH 7.5, 10% glycerol, and 0.03% (w/v) BSA). Reaction progress was followed by spectroscopy at 340 nM monitoring the change in oxidation state of the cofactor. Sufficient enzyme was added to give a linear change in absorbance for 10 minutes.
# (§2) A well-known regulatory mechanism for control of metabolic enzymes is feedback inhibition, in which the product of the reaction acts as a negative regulator for the generating enzyme.
# IDH1 R132H [2] = molecular target: T2, IDH1 R132H (Homo sapiens (Human), UniProt O75874, R132H); experiment: Oxidative decarboxylation of isocitrate to α-KG by IDH1 R132H (340 nm); assay type: biochemical
# T2 sequence (O75874 whole entry R132H): as the sequence (O75874 whole entry) above, with R132H counted along it
# Protocol: as §1, §2
# IDH1 R132S [3] = molecular target: T3, IDH1 R132S (Homo sapiens (Human), UniProt O75874, R132S); experiment: Oxidative decarboxylation of isocitrate to α-KG by IDH1 R132S (340 nm); assay type: biochemical
# T3 sequence (O75874 whole entry R132S): as the sequence (O75874 whole entry) above, with R132S counted along it
# Protocol: as §1, §2
# ICDH1 R132H = ICDH1 R132H (Homo sapiens (Human), UniProt O75874, R132H); experiment: IDH1 R132H inhibition assay (NADPH/aKG, resazurin to resorufin fluorescence); assay type: biochemical; conditions: for IC50 Ratio (40/4): ratio of IC50 at 40 uM to 4 uM NADPH; for IC50: IDH1 R132H
# ICDH1 R132H, sequence (O75874 whole entry R132H): as the sequence (O75874 whole entry) above, with R132H counted along it
# Protocol: Assays were conducted in a volume of 76 ul assay buffer (150 mM NaCl, 10 mM MgCl2, 20 mM Tris pH 7.5, 0.03% bovine serum albumin) as follows in a standard 384-well plate: To 25 ul of substrate mix ([…], 2 mM aKG), 1 ul of test compound was added in DMSO. […] The reaction was incubated for 50 minutes at room temperature, then 25 ul of detection mix (30 uM resazurin, […]) was added and the mixture further incubated for 5 minutes at room temperature. The conversion of resazurin to resorufin was detected by fluorescent spectroscopy at Ex544 Em590 c/o 590.
# (§3) The selectivity between wild type vs mutant could be >20-fold.
# IDH1 wt [4] = molecular target: T4, IDH1 wt (Homo sapiens (Human), UniProt O75874); experiment: IDH1 wt assay for inhibitor selectivity (1×Km of NADPH); assay type: biochemical; conditions: 1x Km NADPH; for IC50: read-out: IDH1wt IC50 @ 1x Km
# T4 sequence (O75874 whole entry): as the sequence (O75874 whole entry) above
# From the text: as §3
# IDH1 R132H [5] = molecular target: T2, IDH1 R132H; experiment: Reduction of α-KG with NADPH by IDH1 R132H; assay type: biochemical
# Protocol: (§4) In these reactions, substrate was varied while the cofactor was held constant at 500 uM. All reactions were performed in 50 mM potassium phosphate buffer, pH 6.5, 10% glycerol, 0.03% (w/v) BSA, 5 mM MgCl2, and 40 mM sodium hydrocarbonate. Reaction progress was followed by spectroscopy at 340 nM monitoring the change in oxidation state of the cofactor. Sufficient enzyme was added to give a linear change in absorbance for 10 minutes.
# IDH1 R132S [6] = molecular target: T3, IDH1 R132S; experiment: Reduction of α-KG with NADPH by IDH1 R132S; assay type: biochemical
# Protocol: as §4
# IDH1 wild-type [7] = molecular target: T1, IDH1 wild-type; experiment: Reduction of α-KG with NADPH by IDH1 wild-type; assay type: biochemical; conditions: 40 ug/ml enzyme
# Protocol: as §4
# IDH1 wild-type [8] = molecular target: T1, IDH1 wild-type; experiment: IDH1/2 activity assay, forward reaction (isocitrate, NADP+), stopped-flow, IDH1 wild-type; assay type: biochemical; conditions: Oxidative (→ NADPH), WT
# Protocol: (§5) Enzymatic binding constants were determined using curve fitting algorithms to standard kinetic models with the Sigmaplot software package (Systat Software, San Jose, Calif.). For determination of kcat, enzyme was incubated with 5×Km of substrate and cofactor; consumption of NADPH or NADP was determined by a change in the OD340 over time. In both cases an extinction coefficient of 6200 M^−1 cm^−1 was used for NADPH.
# IDH1 R132C [9] = molecular target: T5, IDH1 R132C (Homo sapiens (Human), UniProt O75874, R132C); experiment: IDH1/2 activity assay, forward reaction (isocitrate, NADP+), stopped-flow, IDH1 R132C; assay type: biochemical
# T5 sequence (O75874 whole entry R132C): as the sequence (O75874 whole entry) above, with R132C counted along it
# Protocol: as §5
# IDH1 R132C [10] = molecular target: T5, IDH1 R132C; experiment: IDH1/2 activity assay, reverse reaction (α-KG, NADPH), stopped-flow, IDH1 R132C; assay type: biochemical; conditions: Reductive (→ NADP+)
# Protocol: as §5
# IDH1 R132S [11] = molecular target: T3, IDH1 R132S; experiment: Reduction of alpha-ketoglutarate with NADH by IDH1 R132S; assay type: biochemical; conditions: NADH 0.5 mM, alpha-Ketoglutarate 5 mM, R132S 30 ug/ml
# Protocol: (§6) In order to evaluate the ability of the mutant enzymes to utilize NADH in the reduction of alpha-ketoglutarate, the following experiment was conducted.
# IDH1 wt [12] = molecular target: T4, IDH1 wt; experiment: Reduction of alpha-ketoglutarate with NADH by IDH1 wild type; assay type: biochemical; conditions: IDH1 wt 5 ug/ml, NADH 0.5 mM
# Protocol: as §6
# IDH1 R132H [13] = molecular target: T2, IDH1 R132H; experiment: Reduction of alpha-ketoglutarate with NADH by IDH1 R132H; assay type: biochemical; conditions: R132H 60 ug/ml, NADH 0.5 mM
# Protocol: as §6
# IDH1 wild-type [14] = molecular target: T1, IDH1 wild-type; experiment: IDH1/2 activity assay, reverse reaction (α-KG, NADPH), stopped-flow, IDH1 wild-type; assay type: biochemical; conditions: Reductive (→ NADP+); WT; est.
# Protocol: as §5
# glioblastoma multiforme [15] = conditions: cited from earlier work
# glioblastoma multiforme [16] = conditions: cited from earlier work; remark: listed apart in the source
# recurrent glioma = recurrent glioma patients; cited from earlier work
# [17] = read-out: ICDH IC50 (uM) @ 4 uM (10x Km) NADPH, 4 uM (10x Km) NADPH
# [18] = read-out: ICDH IC50 (uM) @ 40 uM NADPH, 40 uM (100x Km) NADPH
# [19] = α-KG product inhibition, competitive with isocitrate, read-out: Ki
# [20] = for α-KG, cofactor 500 uM, pH 6.5
# [21] = α-KG varied, cofactor 500 uM, pH 6.5
# [22] = for isocitrate, cofactor 500 uM
# [23] = with radiation, vs radiation alone
# [24] = without MGMT promoter methylation
compound,measurement,setting,value
"O=C(O)C(=O)C(C(=O)O)C(O)C(=O)O (stereo not drawn) [Oxalomalate, oxalomalate]",Ki,"IDH1 wild-type [1]; IDH1 wt 1.5 ug/ml, NADP 0.5 mM, DL-isocitrate 5-650 uM, read-out: Oxalomalate Ki",955 µM
same,Ki,"IDH1 R132H [2]; IDH1R132H 60 ug/ml, NADP 0.5 mM, DL-isocitrate 5-650 uM, read-out: Oxalomalate Ki",951 µM
same,susceptibility to inhibition by oxalomalate,IDH1 R132H [2]; R132H vs wt,essentially unaffected
same,Ki,"IDH1 R132S [3]; IDH1R132S 30 ug/ml, NADP 0.5 mM, DL-isocitrate 5-650 uM, read-out: Oxalomalate Ki",510 µM
same,increase in susceptibility to inhibition by oxalomalate,IDH1 R132S [3]; R132S vs wt,two-fold
Cc1ccc(C2=NN(c3ccccc3)C(c3cn(CCC(=O)O)nc3-c3ccccc3)C2)cc1 (stereo not drawn),IC50 Ratio (40/4),ICDH1 R132H,3.38
same,IC50,ICDH1 R132H; [17],12.3 µM
same,IC50,ICDH1 R132H; [18],41.4 µM
same,IDH1wt IC50 @ 1x Km (uM),IDH1 wt [4],NO inhibition
O=C1NC(=S)S/C1=C/c1cccc(OCc2ccc([N+](=O)[O-])cc2)c1,IC50 Ratio (40/4),ICDH1 R132H,1.39
same,IC50,ICDH1 R132H; [17],23.8 µM
same,IC50,ICDH1 R132H; [18],33.2 µM
same,IC50,IDH1 wt [4],69.3 µM
Cc1cc(C(=O)O)ccc1-c1ccc(/C=C2/NC(=O)N(Cc3ccc(Br)cc3)C2=O)o1,IC50 Ratio (40/4),ICDH1 R132H,1.28
same,IC50,ICDH1 R132H; [17],15 µM
same,IC50,ICDH1 R132H; [18],19.2 µM
same,IC50,IDH1 wt [4],46.8 µM
Cc1c(/C=C2\Sc3ccccc3C2=O)c(O)n2c(nc3ccccc32)c1C#N,IC50 Ratio (40/4),ICDH1 R132H,17.42
same,IC50,ICDH1 R132H; [17],5.74 µM
same,IC50,ICDH1 R132H; [18],> 100 µM
same,IC50,IDH1 wt [4],16.2 µM
"O=C(O)CCC(=O)C(=O)O [α-KG, α-Ketoglutarate]",Ki,IDH1 wild-type [1]; [19],612 µM
same,Ki,IDH1 R132H [2]; [19],28.6 µM
same,increase in sensitivity to feedback inhibition as compared to the wild-type enzyme,"IDH1 R132H [2]; α-KG, R132H vs wild-type",20 fold
same,Ki,IDH1 R132S [3]; [19],45.3 µM
same,increase in sensitivity to feedback inhibition as compared to the wild-type enzyme,"IDH1 R132S [3]; α-KG, R132S vs wild-type",13 fold
same,Km,IDH1 R132H [5]; [20],965 µM
same,Hill Constant,IDH1 R132H [5]; α-KG varied,1.8
same,Vmax,IDH1 R132H [5]; [21],1.3 µmol/min/mg
same,Km,IDH1 R132S [6]; [20],181 µM
same,Ki,IDH1 R132S [6]; uncompetitive substrate inhibition by α-KG,24600 µM
same,Hill Constant,IDH1 R132S [6]; α-KG varied,0.479
same,Vmax,IDH1 R132S [6]; [21],2.7 µmol/min/mg
same,NADPH consumption in reduction of α-KG,IDH1 wild-type [7],unable to consume NADPH
same,Ki,"IDH1 wild-type [8]; read-out: Ki,αKG",610 µM
same,Ki,"IDH1 R132C [9]; Oxidative (→ NADPH), read-out: Ki,αKG",61 µM
same,Km,"IDH1 R132C [10]; read-out: KM,αKG",295 µM
O=C(O)CC[C@@H](O)C(=O)O [(R)-2-hydroxyglutarate],effect on oxidative decarboxylation of isocitrate by wild-type ICDH1,IDH1 wild-type [1],did not show any effect
"O=C(O)CCC(O)C(=O)O (stereo not drawn) [reaction product 2-HG, 2-hydroxyglutarate]",effect on oxidative decarboxylation of isocitrate by wild-type ICDH1,IDH1 wild-type [1],inhibit
[Cl-].[Cl-].[Mg+2] [MgCl2],Km,"IDH1 R132C [9]; Oxidative (→ NADPH), read-out: KM,MgCl2",450 µM
R132C,kcat,IDH1 R132C [9]; Oxidative (→ NADPH),710 s⁻¹
same,kcat,IDH1 R132C [10],550 s⁻¹
NC(=O)c1ccc[n+]([C@@H]2O[C@H](COP(=O)([O-])OP(=O)(O)OC[C@H]3O[C@@H](n4cnc5c(N)ncnc54)[C@H](OP(=O)(O)O)[C@@H]3O)[C@@H](O)[C@H]2O)c1 [NADP+],Km,"IDH1 R132C [9]; Oxidative (→ NADPH), read-out: KM,NADP+",21 µM
NC(=O)C1=CN([C@@H]2O[C@H](COP(=O)(O)OP(=O)(O)OC[C@H]3O[C@@H](n4cnc5c(N)ncnc54)[C@H](OP(=O)(O)O)[C@@H]3O)[C@@H](O)[C@H]2O)C=CC1 [NADPH],Km,"IDH1 R132C [10]; read-out: KM,NADPH",0.3 µM
NC(=O)C1=CN([C@@H]2O[C@H](COP(=O)(O)OP(=O)(O)OC[C@H]3O[C@@H](n4cnc5c(N)ncnc54)[C@H](O)[C@@H]3O)[C@@H](O)[C@H]2O)C=CC1 [NADH],"Consumption of NADH, Mean",IDH1 R132S [11],0.709 Umol/min/mg
same,"Consumption of NADH, individual runs",IDH1 R132S [11],0.7183 Umol/min/mg and 0.6997 Umol/min/mg
same,"Rate, consumption of NADH, Mean",IDH1 R132S [11],0.001103 ΔA/sec
same,"Rate, consumption of NADH, individual runs",IDH1 R132S [11],0.001117 ΔA/sec and 0.001088 ΔA/sec
same,consumption of NADH in the presence of alpha-ketoglutarate,IDH1 wt [12],no measurable consumption
same,consumption of NADH in the presence of alpha-ketoglutarate,IDH1 R132H [13],no measurable consumption
O=C(O)CC(C(=O)O)C(O)C(=O)O (stereo not drawn) [isocitrate],Km,IDH1 wild-type [1]; [22],56.8 µM
same,Km,IDH1 R132H [2]; [22],172 µM
same,Km,"IDH1 wild-type [8]; read-out: KM,isocitrate",57 µM
same,Km,"IDH1 R132C [9]; read-out: KM,isocitrate, Oxidative (→ NADPH)",87000 µM
WT,kcat,IDH1 wild-type [8],130000 s⁻¹
same,kcat,IDH1 wild-type [14],~7 (est.) s^−1
O=C1NC(=S)S/C1=C\c1cccc(OC(=O)c2cccc(F)c2)c1,IC50 Ratio (40/4),ICDH1 R132H,1.15
same,IC50,ICDH1 R132H; [17],12.8 µM
same,IC50,ICDH1 R132H; [18],14.7 µM
same,IC50,IDH1 wt [4],19.2 µM
"Cn1nnc2c(C(N)=O)ncn2c1=O [temozolomide, Temozolomide]",tolerability,glioblastoma multiforme [15]; in vivo,well tolerated
same,likelihood of being alive in 2 years,glioblastoma multiforme [15]; [23],26%
same,median progression-free survival,glioblastoma multiforme [15]; [23],6.9 mo
same,overall survival,glioblastoma multiforme [15]; [23],14.6 mo
same,2-year survival rate,glioblastoma multiforme [16]; with MGMT promoter methylation,46%
same,median survival,glioblastoma multiforme [16]; with MGMT promoter methylation,21.7 months
same,2-year survival rate,glioblastoma multiforme [16]; [24],13.8%
same,median survival,glioblastoma multiforme [16]; [24],12.7 months
same,6-month survival,recurrent glioma,21%
